Some test systems named below: SF-268 CNS; SF-295 CNS; A549 NSCLC; HT29 colon; HCT-15 colon; SK-MEL-5 melanoma; SR leukemia; HCC-2998 colon; 786-0 renal; UACC-257 melanoma; SNB-75 CNS.
What all share (experiment): NCI anticancer screen, dose series, 48 h

Among the data in PubChem BioAssay (NCI) are TGI values, retold here.

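All cell lines were grown in 96-well plates and treated with compound for 48 hours. TGI is the concentration that stops growth completely.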

On to `CCN(CC)C(=S)N/N=C/c1cc([N+](=O)[O-])ccc1O`, for which the TGI is 57.5 µM in the assay on SF-268 CNS; over 100 µM in the assay with SF-295 CNS; 54 µM with A549 NSCLC; over 100 µM in the assay with HT29 colon; 31.6 µM in the assay with HCT-15 colon; 8.94 µM in the assay with SK-MEL-5 melanoma. Also, the TGI was 25.6 µM in the assay with SR leukemia; 40.3 µM in the assay on HCC-2998 colon; 68.9 µM in the assay with 786-0 renal; 32.2 µM in the assay on UACC-257 melanoma; 72.7 µM in the assay with SNB-75 CNS.

With `Oc1ccccc1CNCc1nc2ccccc2[nH]1`, the TGI in the assay with SF-268 CNS is over 100 µM; in the assay with SF-295 CNS, over 100 µM; in the assay on A549 NSCLC, over 100 µM; in the assay on HT29 colon, over 100 µM; in the assay with HCT-15 colon it was 12.3 µM; with SK-MEL-5 melanoma it was 65.6 µM. For the same compound, the TGI with SR leukemia, in the assay on HCC-2998 colon, in the assay with 786-0 renal, in the assay on UACC-257 melanoma and with SNB-75 CNS was over 100 µM throughout.

For `CC(=O)N1C(C(=O)NC2CCCCC2)CSC1c1ccccc1` (centres undefined), the TGI with SF-268 CNS, with SF-295 CNS, in the assay with A549 NSCLC, in the assay on HT29 colon, in the assay on HCT-15 colon and in the assay with SK-MEL-5 melanoma was over 100 µM throughout. Besides, the TGI with SR leukemia, in the assay on HCC-2998 colon, in the assay on 786-0 renal, in the assay on UACC-257 melanoma and with SNB-75 CNS was over 100 µM in each case.

Consider `N#CC(NCc1cccc(CNC(C#N)c2ccccc2)c1)c1ccccc1` (centres undefined), for which the TGI is over 100 µM in the assay with SF-268 CNS; over 100 µM with SF-295 CNS; over 100 µM in the assay on A549 NSCLC; 30.8 µM in the assay on HT29 colon; 66.1 µM with HCT-15 colon; over 100 µM in the assay on SK-MEL-5 melanoma. Besides, the TGI was over 100 µM with SR leukemia; 28.1 µM in the assay with HCC-2998 colon; over 100 µM with 786-0 renal; over 100 µM with UACC-257 melanoma; 87.6 µM in the assay on SNB-75 CNS.

`COP(=O)(OC)C1=c2c(C)noc2=C2C=COC2C1=O` (centres undefined): the TGI with SF-268 CNS, in the assay on SF-295 CNS, with A549 NSCLC, with HT29 colon, with HCT-15 colon and with SK-MEL-5 melanoma was over 100 µM each time. For the same compound, the TGI with SR leukemia, in the assay on HCC-2998 colon, in the assay on 786-0 renal, in the assay on UACC-257 melanoma and in the assay with SNB-75 CNS was over 100 µM in each case.

Take `COc1cccc(C2SC(N)=Nc3c2c(C)nn3C(=O)c2ccccc2O)c1` (centres undefined): the TGI with SF-268 CNS, with SF-295 CNS, in the assay with A549 NSCLC, in the assay on HT29 colon, with HCT-15 colon and with SK-MEL-5 melanoma was over 10 µM in each case. The TGI with SR leukemia was over 7.36 µM; in the assay with HCC-2998 colon, over 10 µM; in the assay on 786-0 renal it was over 10 µM; in the assay with UACC-257 melanoma, over 10 µM; with SNB-75 CNS, over 10 µM.

Take `CC(C)c1cc2c(cc1S(=O)(=O)O)[C@@]1(C)CCC[C@@](C)(C(=O)O)C1CC2` (some centres undefined): the TGI in the assay with SF-268 CNS, with SF-295 CNS, with A549 NSCLC, in the assay with HT29 colon, with HCT-15 colon and in the assay with SK-MEL-5 melanoma was over 100 µM throughout. Further, the TGI with SR leukemia, in the assay with HCC-2998 colon, in the assay on 786-0 renal, in the assay with UACC-257 melanoma and in the assay on SNB-75 CNS was over 100 µM throughout.

As for `Cc1oc2c(cc(O)c3cc(O)ccc32)c2cccc1-2`, the TGI with SF-268 CNS, with SF-295 CNS, in the assay with A549 NSCLC, in the assay on HT29 colon, in the assay on HCT-15 colon and with SK-MEL-5 melanoma was over 100 µM throughout. For the same compound, the TGI with SR leukemia, in the assay with HCC-2998 colon, in the assay on 786-0 renal, with UACC-257 melanoma and with SNB-75 CNS was over 100 µM each time.

With `CC1(C(=O)O)CCC2(C)CCC3(C)C(=CC(=O)C4C5(C)CCC(O)C(C)(C)C5CCC43C)C2C1` (centres undefined), the TGI in the assay with SF-268 CNS is 67.4 µM; in the assay on SF-295 CNS it was 70.1 µM; in the assay on A549 NSCLC, over 100 µM; in the assay on HT29 colon, 38.7 µM; with HCT-15 colon, 85.4 µM; in the assay on SK-MEL-5 melanoma it was 54.3 µM. The TGI was 61 µM with SR leukemia; 87.3 µM with HCC-2998 colon; over 100 µM with 786-0 renal; over 100 µM in the assay on UACC-257 melanoma; over 100 µM with SNB-75 CNS.
